One compound from paper PMC10768243 (Microbial Cell Factories, 2024) can be followed below.

The target of this test is topoisomerase II. The experiment in a line: topoisomerase II activity inhibition assay (isoform not given). Format: biochemical.

By IC50 is commonly meant the midpoint of a concentration-inhibition curve. A high value points to a need for much substance. In the case of `CC[C@@]1(O)C(=O)OCc2c1cc1n(c2=O)Cc2cc3ccccc3nc2-1` [camptothecin], the midpoint of inhibition, the IC50, lay at 0.52 nM.
